Results on 22 molecules are retold here after patent US7253191B2, “2-thio-substituted imidazole derivatives and the use thereof in the pharmaceutical industry” (Merckle GmbH, priority 2001, dated 2007).

As a reminder, the IC50 is the point on the concentration scale where inhibition reaches its midpoint.

In one assay the test system is TNF-α. Put plainly: In vitro test of cytokine release: LPS-stimulated human whole blood / PBMCs, TNFα by ELISA. The assay is classed as cell-based. To be noted: for IC50: LPS (E.coli 026:B6) stimulation 4 hours, table does not say whole blood or PBMCs. How it is done:
(§1) They may be administered in one individual dose or in a plurality of doses. The activity spectrum of the compounds as inhibitors of cytokine release was examined using the test systems below, as described by C. Donat and S. Laufer in Arch. Pharm. Pharm. […] 1, 1-40, 2000.
(§2) The reaction is stopped by placing the samples on ice, adding DPBS buffer and then centrifuging at 1000*g for 15 min. The amount of IL-1β and TNFα in the plasma supernatant is then determined by ELISA.
(§3) The cells are washed twice with DPBS buffer, resuspended in macrophage SFM medium and adjusted to a cell count of 1*10^6 cells/ml.
(§4) The reaction is stopped by placing the samples on ice, adding DPBS buffer and then centrifuging at 15 880*g for 12 min. The amount of IL-1β and TNFα in the plasma supernatant is then determined by ELISA.
On the technique in general: In an ELISA, binding on a coated surface is turned into a signal by an enzyme label.

For a further assay, the system named is IL-1β. Put plainly: In vitro test of cytokine release: LPS-stimulated human whole blood / PBMCs, IL-1β by ELISA. The assay is classed as cell-based. The note with it: for IC50: LPS (E.coli 026:B6) stimulation 4 hours, table does not say whole blood or PBMCs. How it is done: as §1, §2, §3, §4
The mark [1] stands for this setting: Table 1, concentration not given.

Regarding `Fc1ccc(-c2[nH]c(=S)n(Cc3ccccc3)c2-c2ccncc2)cc1` [Example 8, 1-Benzyl-4-(4-fluorophenyl)-5-(4-pyridyl)-2-thioimidazole], the IC50 with TNF-α (Table 1) came out at 20 µM; in the assay on IL-1β (Table 1) it was 1 µM.

Turning to `CSc1nc(-c2ccc(F)cc2)c(-c2ccnc(NC(C)=O)c2)n1C1CC(C)(C)NC(C)(C)C1` [Example 63, 4-(4-Fluorophenyl)-1-(2,2,6,6-tetramethylpiperidin-4-yl)-5-(2-acetamido-4-pyridyl)-2-methylthioimidazole], the IC50 in the assay on TNF-α (Homo sapiens, Table 2) was determined as 4.5 µM; in the assay on IL-1β (Homo sapiens, Table 2), 0.46 µM.

Regarding `Cn1c(SCCN2CCOCC2)nc(-c2ccc(F)cc2)c1-c1ccncc1` [Example 47], the IC50 in the assay with TNF-α (Table 1) is 28 µM; in the assay with IL-1β (Table 1) it was 1.7 µM.

In the case of `CCCn1c(SCc2ccccc2)nc(-c2ccc(F)cc2)c1-c1ccncc1` [Example 28, 2-Benzylthio-4-(4-fluorophenyl)-1-n-propyl-5-(4-pyridyl)imidazole], the IC50 in the assay with TNF-α (Homo sapiens, Table 1) came out at 29 µM; in the assay with IL-1β (Homo sapiens, Table 1), 0.65 µM.

Regarding `CCn1c(-c2ccncc2)c(-c2ccc(F)cc2)[nH]c1=S` [Example 2, 1-Ethyl-4-(4-fluorophenyl)-5-(4-pyridyl)-2-thioimidazole], the 50% inhibitory concentration (IC50) with TNF-α (Table 1) turned out to be 41 µM; with IL-1β (Table 1), 1.3 µM.

Take `CCCn1c(Sc2ccc([S+](C)[O-])cc2)nc(-c2ccc(F)cc2)c1-c1ccncc1` (centres unmarked) [Example 55, 4-(4-Fluorophenyl)-2-[(4-methylsulfinyl)phenyl]thio-1-n-propyl-5-(4-pyridyl)imidazole]: the IC50 with TNF-α (Table 1) stood at 6.2 µM; in the assay with IL-1β (Table 1) it was 0.72 µM.

For the molecule `CCCn1c(S)nc(-c2ccncc2)c1-c1ccc(F)cc1` [Example 59], the midpoint of inhibition in the assay on TNF-α (Table 1), the IC50, lay at 83 µM. Further, the “IL-1β, value given in %” value with IL-1β (setting [1]) worked out at 16%.

Consider `Cn1c(S/C=C\c2ccccc2)nc(-c2ccc(F)cc2)c1-c1ccncc1` [Example 48, 1-cis-Phenylethenylthio-4-(4-fluorophenyl)-1-methyl-5-(4-pyridyl)-imidazole], for which the IC50 in the assay on TNF-α (Homo sapiens, Table 1) turned out to be 22 µM; in the assay on IL-1β (Homo sapiens, Table 1) it was 1.7 µM.

For the molecule `CS(=O)(=O)c1ccc(CSc2nc(-c3ccc(F)cc3)c(-c3ccncc3)n2C2CCCCC2)cc1` [Example 39, 1-Cyclohexyl-4-(4-fluorophenyl)-2-(4-methylsulfonyl)benzylthio-5-(4-pyridyl)imidazole], the values for the IC50 with TNF-α (Table 1) and with IL-1β (Table 1) were 13 µM and 1.8 µM, respectively.

Turning to `Fc1ccc(-c2[nH]c(=S)n(-c3ccccc3)c2-c2ccncc2)cc1` [Example 7, 4-(4-Fluorophenyl)-1-phenyl-5-(4-pyridyl)-2-thioimidazole], the IC50 in the assay on TNF-α (Table 1) stood at 37 µM; with IL-1β (Table 1), 2.3 µM.

Take “4-(4-Fluorophenyl)-2-(4-methylsulfonyl)benzylthio-1-N-morpholinoethyl-5-(4-pyridyl)imidazole [Example 44]”: the concentration for half-maximal inhibition (IC50) in the assay with TNF-α (Table 1) was found to be 12 µM; in the assay with IL-1β (Table 1), 1.4 µM.

With `Fc1ccc(-c2[nH]c(=S)n(C3CCCCC3)c2-c2ccncc2)cc1` [Example 5, 1-Cyclohexyl-4-(4-fluorophenyl)-5-(4-pyridyl)-2-thioimidazole], the IC50 is 33 µM in the assay on TNF-α (Table 1) and 5.4 µM in the assay with IL-1β (Table 1).

For the molecule `CCCn1c(SCc2ccc([S+](C)[O-])cc2)nc(-c2ccc(F)cc2)c1-c1ccncc1` (centres unmarked) [Example 32, 4-(4-Fluorophenyl)-2-(4-methylsulfinyl)benzylthio-1-n-propyl-5-(4-pyridyl)imidazole], the values for the IC50 with TNF-α (Table 1) and in the assay with IL-1β (Table 1) were 24 µM and 1.6 µM, respectively.

For the molecule `CCCn1c(SC)nc(-c2ccc(F)cc2)c1-c1ccnc(NCC)c1` [Example 74, 4-(4-Fluorophenyl)-1-n-propyl-5-(2-ethylamino-4-pyridyl)-2-methylthioimidazole], the IC50 in the assay with TNF-α (Homo sapiens, Table 2) came out at 0.41 µM; in the assay with IL-1β (Homo sapiens, Table 2) it was 0.15 µM.

With `CC(C)n1c(SCc2ccc(Cl)cc2)nc(-c2ccc(F)cc2)c1-c1ccncc1` [Example 34, 2-(4-Chlorobenzyl)thio-4-(4-fluorophenyl)-1-isopropyl-5-(4-pyridyl)-imidazole], the IC50 is 53 µM in the assay with TNF-α (Homo sapiens, Table 1) and 5.3 µM with IL-1β (Homo sapiens, Table 1).

Take `CCNc1cc(-c2c(-c3ccc(F)cc3)nc(SC)n2C2CC(C)(C)NC(C)(C)C2)ccn1` [Example 75]: the IC50 is 2.9 µM in the assay on TNF-α (Homo sapiens, Table 2) and 0.62 µM in the assay on IL-1β (Homo sapiens, Table 2).

Take `OCCCn1c(-c2ccncc2)c(-c2ccc(F)cc2)[nH]c1=S` [Example 17, 4-(4-Fluorophenyl)-1-(3-hydroxypronyl)-5-(4-pyridyl)-2-thioimidazole]: the “TNF-α, value given in %” value in the assay with TNF-α (setting [1]) came out at 49%. Half-maximal inhibition in the assay on IL-1β (Table 1) (IC50) was put at 7.3 µM.

Regarding `CC(C)n1c(SCc2ccc(S(C)(=O)=O)cc2)nc(-c2ccc(F)cc2)c1-c1ccncc1` [Example 35, 4-(4-Fluorophenyl)-2-(4-methylsulfonyl)benzylthio-1-isopropyl-5-(4-pyridyl)imidazole], the IC50 worked out at 2.7 µM in the assay on TNF-α (Table 1) and 1.5 µM with IL-1β (Table 1).

For the molecule `CC1(C)CC(n2cc(-c3ccc(F)cc3)nc2SCc2ccccc2)CC(C)(C)N1` [Example 46, 2-Benzylthio-4-(4-fluorophenyl)-1-(2,2,6,6-tetramethylpiperidin-4-yl)-imidazole], the IC50 turned out to be 12 µM with TNF-α (Homo sapiens, Table 1) and 0.87 µM in the assay on IL-1β (Homo sapiens, Table 1).

Consider `CSc1nc(-c2ccc(F)cc2)c(-c2ccnc(N)c2)n1C` [Example 66, 4-(4-Fluorophenyl)-1-methyl-5-(2-amino-4-pyridyl)-2-methyl-thioimidazole], for which the IC50 is 2.3 µM with TNF-α (Homo sapiens, Table 2) and 0.27 µM with IL-1β (Homo sapiens, Table 2).

In the case of `CSc1nc(-c2ccc(F)cc2)c(-c2ccncc2)n1C` [Example 20], the IC50 in the assay on TNF-α (Table 1) is 2.5 µM; in the assay on IL-1β (Table 1), 0.45 µM.

As to `Fc1ccc(-c2[nH]c(=S)n(C3CCN(Cc4ccccc4)CC3)c2-c2ccncc2)cc1` [Example 18], the values for the IC50 in the assay with TNF-α (Table 1) and with IL-1β (Table 1) were 38 µM and 5.8 µM, respectively.
